Experimental data as given in patent US20260042731A1, “(2,4-DICHLOROPHENOXY)ACETIC ACID ANALOGS” (CORTEVA AGRISCIENCE LLC, priority 2022, published 2026).
Read-outs that look alike come from different tables or passages of the source.

Legend:
[1] = Volatility of compounds measured by thermogravimetric analysis (TGA); assay type: physicochemical
[2] = test system: Chenopodium album (CHEAL), common lambsquarters; test: Postemergence herbicide evaluation, growth of Chenopodium album (CHEAL); assay type: in vivo; conditions: Chenopodium album, post-emergence, percent reduction in plant size vs untreated control, read-out: Ave. CHEAL; for pest or weed control at 280 g/ha: 280 g ae/ha; for pest or weed control at 560 g/ha: 560 g ae/ha
[3] = test system: Abutilon theophrasti (ABUTH), velvetleaf; test: Postemergence herbicide evaluation, growth of Abutilon theophrasti (ABUTH); assay type: in vivo; conditions: Abutilon theophrasti, post-emergence, percent reduction in plant size vs untreated control, read-out: AVE. ABUTH; for pest or weed control at 280 g/ha: 280 g ae/ha; for pest or weed control at 560 g/ha: 560 g ae/ha
[4] = test system: Amaranthus rudis (AMATA), tall water hemp; test: Postemergence herbicide evaluation, growth of Amaranthus rudis (AMATA); assay type: in vivo; conditions: Amaranthus tuberculatus, post-emergence, percent reduction in plant size vs untreated control, read-out: Ave. AMATA; for pest or weed control at 280 g/ha: 280 g ae/ha; for pest or weed control at 560 g/ha: 560 g ae/ha
[5] = test system: Ambrosia artemisiifolia (AMBEL), common ragweed; test: Postemergence herbicide evaluation, growth of Ambrosia artemisiifolia (AMBEL); assay type: in vivo; conditions: Ambrosia artemisiifolia, post-emergence, percent reduction in plant size vs untreated control, read-out: AVE. AMBEL; for pest or weed control at 280 g/ha: 280 g ae/ha; for pest or weed control at 560 g/ha: 560 g ae/ha
[6] = test system: glyphosate resistant Conyza canadensis (L.) (ERICA), horseweed; test: Postemergence herbicide evaluation, growth of Conyza canadensis (ERICA); assay type: in vivo; conditions: Erigeron canadensis, post-emergence, percent reduction in plant size vs untreated control, read-out: Ave. ERICA; for pest or weed control at 280 g/ha: 280 g ae/ha; for pest or weed control at 560 g/ha: 560 g ae/ha
[7] = test system: weeds ABUTH, AMATA, AMBEL, CHEAL, ERICA; test: Postemergence herbicide evaluation, overall average % weed control across ABUTH, AMATA, AMBEL, CHEAL and ERICA; assay type: in vivo; conditions: post-emergence, average over five weeds, read-out: Overall Ave % Weed Control; for pest or weed control at 280 g/ha: 280 g ae/ha; for pest or weed control at 560 g/ha: 560 g ae/ha
Velvetleaf (ABUTH) = test: Greenhouse post-emergence mixture trials, percent visual control; assay type: in vivo; conditions: Abutilon theophrasti, post-emergence, 504 h, ABUTH, 21 DAA; for pest or weed control at 150 g/ha: Mesotrione 150 g ai or ae/ha alone
[8] = test system: Common Lambsquarters (CHEAL); test: as above; assay type: in vivo; conditions: CHEAL, 21 DAA

Structure (SMILES): O=C(COc1ccc(Cl)cc1Cl)ONC(=O)c1cccnc1 [Compound A19]
- TGA Data (rate of weight loss, volatility) [1]: 0.348 µg/min

Structure (SMILES): O=C(COc1ccc(Cl)cc1Cl)O/N=C/c1cccs1 [Compound A23]
- TGA Data (rate of weight loss, volatility) [1]: 0.3728 µg/min

Structure (SMILES): O=C(COc1ccc(Cl)cc1Cl)ONC(=O)c1ccc(Cl)cc1 [Compound A28]
- TGA Data (rate of weight loss, volatility) [1]: 0.3455 µg/min

Structure (SMILES): O=C(COc1ccc(Cl)cc1Cl)OCOC(=O)COc1ccc(Cl)cc1Cl [Compound B15, Methylene bis(2-(2,4-dichlorophenoxy)acetate)]
- TGA Data (rate of weight loss, volatility) [1]: 0.3 µg/min

Structure (SMILES): Cc1nc2ccccc2n1C(=O)COc1ccc(Cl)cc1Cl [Compound D12]
- pest or weed control at 280 g/ha ([2]; 168 h, 7 DAA): 80%
- pest or weed control at 560 g/ha ([2]; 168 h, 7 DAA): 75%
- pest or weed control at 280 g/ha ([2]; 336 h, 14 DAA): 98.5%
- pest or weed control at 560 g/ha ([2]; 336 h, 14 DAA): 98.5%
- pest or weed control at 280 g/ha ([2]; 504 h, 21 DAA): 90%
- pest or weed control at 560 g/ha ([2]; 504 h, 21 DAA): 96%
- pest or weed control at 280 g/ha ([3]; 168 h, 7 DAA): 47.5%
- pest or weed control at 560 g/ha ([3]; 168 h, 7 DAA): 67.5%
- pest or weed control at 280 g/ha ([3]; 336 h, 14 DAA): 67.5%
- pest or weed control at 560 g/ha ([3]; 336 h, 14 DAA): 85%
- pest or weed control at 280 g/ha ([3]; 504 h, 21 DAA): 67.5%
- pest or weed control at 560 g/ha ([3]; 504 h, 21 DAA): 96.5%
- pest or weed control at 280 g/ha ([4]; 168 h, 7 DAA): 62.5%
- pest or weed control at 560 g/ha ([4]; 168 h, 7 DAA): 77.5%
- pest or weed control at 280 g/ha ([4]; 336 h, 14 DAA): 87.5%
- pest or weed control at 560 g/ha ([4]; 336 h, 14 DAA): 92.5%
- pest or weed control at 280 g/ha ([4]; 504 h, 21 DAA): 65%
- pest or weed control at 560 g/ha ([4]; 504 h, 21 DAA): 77.5%
- pest or weed control at 280 g/ha ([5]; 168 h, 7 DAA): 75%
- pest or weed control at 560 g/ha ([5]; 168 h, 7 DAA): 72.5%
- pest or weed control at 280 g/ha ([5]; 336 h, 14 DAA): 67.5%
- pest or weed control at 560 g/ha ([5]; 336 h, 14 DAA): 77.5%
- pest or weed control at 280 g/ha ([5]; 504 h, 21 DAA): 100%
- pest or weed control at 560 g/ha ([5]; 504 h, 21 DAA): 100%
- pest or weed control at 280 g/ha ([6]; 168 h, 7 DAA): 85%
- pest or weed control at 560 g/ha ([6]; 168 h, 7 DAA): 85%
- pest or weed control at 280 g/ha ([6]; 336 h, 14 DAA): 98.5%
- pest or weed control at 560 g/ha ([6]; 336 h, 14 DAA): 99.5%
- pest or weed control at 280 g/ha ([6]; 504 h, 21 DAA): 100%
- pest or weed control at 560 g/ha ([6]; 504 h, 21 DAA): 100%
- pest or weed control at 280 g/ha ([7]; 168 h, 7 DAA): 70%
- pest or weed control at 560 g/ha ([7]; 168 h, 7 DAA): 75.5%
- pest or weed control at 280 g/ha ([7]; 336 h, 14 DAA): 83.9%
- pest or weed control at 560 g/ha ([7]; 336 h, 14 DAA): 90.6%
- pest or weed control at 280 g/ha ([7]; 504 h, 21 DAA): 84.5%
- pest or weed control at 560 g/ha ([7]; 504 h, 21 DAA): 94%

Structure (SMILES): O=C(COc1ccc(Cl)cc1Cl)Oc1ccncn1 [Compound E8]
- TGA Data (rate of weight loss, volatility) [1]: 0.7322 µg/min

Structure (SMILES): O=C(COc1ccc(Cl)cc1Cl)Oc1ccncc1 [Compound E15]
- TGA Data (rate of weight loss, volatility) [1]: 0.03683 µg/min

Structure (SMILES): CS(=O)(=O)c1ccc(C(=O)C2C(=O)CCCC2=O)c([N+](=O)[O-])c1 [Mesotrione, 2-[4-(methylsulfonyl)-2-nitrobenzoyl]-1,3-cyclohexanedione, reference compound]
- pest or weed control at 75 g/ha (Velvetleaf (ABUTH); Trial 2 Trt 25, B2 0 g ae/ha, Mesotrione 75 g ai or ae/ha alone): 100%
- pest or weed control at 150 g/ha (Velvetleaf (ABUTH); Trial 2 Trt 28, B2 0 g ae/ha): 100%
- pest or weed control at 150 g/ha (Velvetleaf (ABUTH); Trial Bridge 1 Trt 10, D10 0 g ae/ha): 100%
- pest or weed control at 75 g/ha ([8]; Chenopodium album, post-emergence, 504 h, Trial 2 Trt 25: B2 0 g ae/ha, Mesotrione 75 g ai or ae/ha alone): 100%
- pest or weed control at 150 g/ha ([8]; Chenopodium album, post-emergence, 504 h, Trial 2 Trt 28: B2 0 g ae/ha, Mesotrione 150 g ai or ae/ha alone): 100%
- % Control ([8]; Trial Bridge 1, mixing partner alone (D10 at 0 g ae/ha), Mesotrione 150 g ai or ae/ha): 100%
